Experimental findings from patent US20250136576A1, “Heterocyclic Compounds and Uses Thereof” (ACEA Therapeutics, Inc., priority 2021, published 2025) are described below.

Molecules are shown by their SMILES. Where only a bound is given, the exact number is not on record here.

One experiment concerns KM12-luc cells. Put plainly: Cell proliferation and growth inhibition assay (CCK-8) in KM12-luc. It is filed as cell-based. The settings on record: KM12-Luc, 72 h, KM12-luc cells, treated with test compounds for 72 hrs, CCK-8 viability; read-out: NTRK IC50 in KM12-luc. The procedure:
MV-4-11 and H1975 cells were obtained from the American Type Culture Collection and KM12-luc cells were obtained from JCRB Cell Bank. All cell lines were maintained at 37° C. with 5% C02, in media supplemented with 10% fetal bovine serum and penicillin (100 units/mL) and streptomycin (100 μg/mL). MV-4-11 cells were maintained in Iscove's Modified Dubecco's Medium, H1975 cells were cultured with RPMI 1640 media, and KM12-luc cells were maintained in Dulbecco's Modification of Eagle's Medium. CCK-8 reagent was obtained from Yeasen. Cell proliferation was assessed by CCK-8 assay (Yeasen) per the manufacturer's instructions. […] Cell viability was assayed by incubating the cells with CCK-8 reagent for 1-4 hrs. Absorbance was measured at OD450 using the Beckman DTX880. The data was calculated using GraphPad Prism version 6.01. The IC50 values were fitted using a non-linear regression model with a sigmoidal dose response.
One may read the IC50 as the concentration that inhibits the measured activity by half. For `CNc1cc(Nc2ncc(OC)c(-c3cn(C)c4ccccc34)n2)ccc1N(C)CCN(C)C` [Compound 275, N^1-(2-(dimethylamino)ethyl)-N^4-(5-methoxy-4-(1-methyl-1H-indol-3-yl)pyrimidin-2-yl)-N^1,N^2-dimethylbenzene-1,2,4-triamine], the IC50 was found to be 600 nM.
As to `COc1nc(Nc2cc(F)c(N(C)CCN(C)C)c(NC(C)=O)c2)nc(-c2cn(C)c3ccccc23)c1OC` [Compound 291b, N-(5-((4,5-dimethoxy-6-(1-methyl-1H-indol-3-yl)pyrimidin-2-yl)amino)-2-((2-(dimethylamino)ethyl)(methyl)amino)-3-fluorophenyl)acetamide], the IC50 turned out to be 1400 nM.
Consider `CNc1cc(Nc2nc(-c3cn(C)c4ccccc34)c3cc[nH]c3n2)ccc1N(C)CCN(C)C` [Compound 192, N^1-(2-(dimethylamino)ethyl)-N^1,N^2-dimethyl-N^4-(4-(1-methyl-1H-indol-3-yl)-7H-pyrrolo[2,3-d]pyrimidin-2-yl)benzene-1,2,4-triamine], for which the IC50 stood at 525 nM.
`CN(C)CCN(C)c1ccc(C(=O)Nc2c[nH]c3ccc(Cc4cc(F)cc(F)c4)cc23)c(NC2CCOCC2)c1` [Compound 507, N-(5-(3,5-difluorobenzyl)-1H-indol-3-yl)-4-(2-(dimethylamino)ethyl)(methylamino)-2-((tetrahydro-2H-pyran-4-yl)amino) benzamide]: the IC50 was more than 1000 nM.
Same read-out and setting: to `Cc1cccc2c(-c3nc(Nc4ccc(N5CC[C@@H](N(C)C)C5)c(N)c4)ncc3Cl)cn(C)c12` [Compound R-431, (R)—N^1-(5-chloro-4-(1,7-dimethyl-1H-indol-3-yl)pyrimidin-2-yl)-4-(3-(dimethylamino)pyrrolidin-1-yl)benzene-1,3-diamine] belongs 31.8 nM; to `CC(=O)Nc1cc(Nc2ncc(C(F)(F)F)c(-c3c[nH]c4c(F)cccc34)n2)c(F)cc1N(C)CCN(C)C` [Compound 340, N-(2-((2-(dimethylamino)ethyl)(methyl)amino)-4-fluoro-5-((4-(7-fluoro-1H-indol-3-yl)-5-(trifluoromethyl)pyrimidin-2-yl)amino)phenyl)acetamide], 57.4 nM; to `COCCCN(C)c1cc(N2CCN(C)CC2)ccc1C(=O)Nc1c[nH]c2cnc(Nc3cc(F)cc(F)c3)nc12` [Compound 494, N-(2-((3,5-difluorophenyl)amino)-5H-pyrrolo[3,2-d]pyrimidin-7-yl)-2-((3-methoxypropyl)(methyl)amino)-4-(4-methylpiperazin-1-yl)benzamide], more than 1000 nM.
With `CN(C)[C@@H]1CCN(c2ccc(Nc3ncc(C(F)(F)F)c(-c4c[nH]c5c(F)cccc45)n3)cc2N)C1` [Compound R-345, (R)-4-(3-(dimethylamino)pyrrolidin-1-yl)-N^1-(4-(7-fluoro-1H-indol-3-yl)-5-(trifluoromethyl)pyrimidin-2-yl)benzene-1,3-diamine], the IC50 came to 6.2 nM.
Same read-out and setting: in the case of `CC(=O)Nc1cc(Nc2ncc(F)c(-c3cn(C)c4cccc(F)c34)n2)ccc1N(C)CCN(C)C` [Compound 264, N-(2-((2-(dimethylamino)ethyl)(methyl)amino)-5-((5-fluoro-4-(4-fluoro-1-methyl-1H-indol-3-yl)pyrimidin-2-yl)amino)phenyl)acetamide] it was 1040 nM; in that of `CCN(CCN(C)C)c1ccc(Nc2ncc(C(F)(F)F)c(-c3c[nH]c4ccccc34)n2)cc1NC(C)=O` [Compound 300a, N-(5-((4-(1H-indol-3-yl)-5-(trifluoromethyl)pyrimidin-2-yl)amino)-2-((2-(dimethylamino)ethyl)(ethyl)amino)phenyl)acetamide], 27.9 nM.
Still for that read-out and setting: to `CC(=O)Nc1cc(Nc2ncc(F)c(-c3cn(C)c4ccc(F)cc34)n2)ccc1N(C)CCN(C)C` [Compound 265, N-(2-((2-(dimethylamino)ethyl)(methyl)amino)-5-((5-fluoro-4-(5-fluoro-1-methyl-1H-indol-3-yl)pyrimidin-2-yl)amino)phenyl)acetamide] belongs 414 nM; to `CCN(CCN(C)C)c1c(F)cc(Nc2nc3c(c(-c4cn(C)c5ccccc45)n2)CCO3)cc1NC(C)=O` [Compound 258d, N-(2-((2-(dimethylamino)ethyl)(ethyl)amino)-3-fluoro-5-((4-(1-methyl-1H-indol-3-yl)-5,6-dihydrofuro[2,3-d]pyrimidin-2-yl)amino)phenyl)acetamide], more than 1000 nM; to `CCN(CCN(C)C)c1ccc(Nc2nc(-c3cn(C)c4ccccc34)c3cc[nH]c3n2)cc1N` [Compound 211, N^1-(2-(dimethylamino)ethyl)-N^1-ethyl-N^4-(4-(1-methyl-1H-indol-3-yl)-7H-pyrrolo[2,3-d]pyrimidin-2-yl)benzene-1,2,4-triamine], 40.3 nM.
As for `COc1cccc2c(-c3nc(Nc4ccc(N(C)CCN(C)C)c(NC(C)=O)c4)ncc3Cl)cn(C)c12` [Compound 434, N-(5-(5-chloro-4-(7-methoxy-1-methyl-1H-indol-3-yl)pyrimidin-2-ylamino)-2-((2-(dimethylamino)ethyl)(methyl)amino)phenyl)acetamide], the IC50 is 97.1 nM.
As for `CN(C)CCN(C)c1ccc(Nc2ncc(C(F)(F)F)c(-c3c[nH]c4cccc(F)c34)n2)cc1N` [Compound 317, N^1-(2-(dimethylamino)ethyl)-N^4-(4-(4-fluoro-1H-indol-3-yl)-5-(trifluoromethyl)pyrimidin-2-yl)-N^1-methylbenzene-1,2,4-triamine], the half-inhibitory concentration (IC50) was found to be 24.9 nM.
Regarding `CN(C)CCN(C)c1ccc(Nc2ncc(C(F)(F)F)c(-c3c[nH]c4ccccc34)n2)cc1N` [Compound 297, N^4-(4-(1H-indol-3-yl)-5-(trifluoromethyl)pyrimidin-2-yl)-N^1-(2-(dimethylamino)ethyl)-N^1-methylbenzene-1,2,4-triamine], the IC50 stood at 37.7 nM.
With `CN1CCN(c2ccc(C(=O)Nc3c[nH]c4cnc(Nc5cc(F)cc(F)c5)nc34)c(NC3CCOCC3)c2)CC1` [Compound 491, N-(2-((3,5-difluorophenyl)amino)-5H-pyrrolo[3,2-d]pyrimidin-7-yl)-4-(4-methylpiperazin-1-yl)-2-((tetrahydro-2H-pyran-4-yl)amino)benzamide], the half-maximal inhibitory concentration (IC50) was more than 3330 nM.
As to `CNc1cc(Nc2ncc(OC)c(-c3c[nH]c4ccccc34)n2)ccc1N(C)CCN(C)C` [Compound 273a, N^4-(4-(1H-indol-3-yl)-5-methoxypyrimidin-2-yl)-N1-(2-(dimethylamino)ethyl)-N^1,N^2-dimethylbenzene-1,2,4-triamine], the IC50 was determined as 127 nM.
Consider `Cc1cccc2c(-c3nc(Nc4ccc(N(C)CCN(C)C)c(N)c4)ncc3Cl)cn(C)c12` [Compound 428, N^4-(5-chloro-4-(1,7-dimethyl-1H-indol-3-yl)pyrimidin-2-yl)-N^1-(2-(dimethylamino)ethyl)-N^1-methylbenzene-1,2,4-triamine], for which the IC50 is 46.4 nM.
Take `CC(=O)Nc1cc(Nc2ncc(Cl)c(-c3cn(C)c4c(C)cccc34)n2)ccc1N1CC[C@@H](N(C)C)C1` [Compound R-432, (R)—N-(5-((5-chloro-4-(1,7-dimethyl-1H-indol-3-yl)pyrimidin-2-yl)amino)-2-(3-(dimethylamino)pyrrolidin-1-yl)phenyl)acetamide]: the IC50 stood at 130 nM.
Take `CCN(CCN(C)C)c1ccc(Nc2ncc(C(F)(F)F)c(-c3c[nH]c4cccc(F)c34)n2)cc1NC(C)=O` [Compound 318, N-(2-((2-(dimethylamino)ethyl)(ethyl)amino)-5-((4-(4-fluoro-1H-indol-3-yl)-5-(trifluoromethyl)pyrimidin-2-yl)amino)phenyl)acetamide]: the IC50 stood at 43.2 nM.
For the compound `CCC(=O)Nc1cccc(Nc2ncc(F)c(Nc3ccc(N4CCN(C(C)=O)CC4)c(F)c3)n2)c1` [Compound 158, N-(3-((4-((4-(4-acetylpiperazin-1-yl)-3-fluorophenyl)amino)-5-fluoropyrimidin-2-yl)amino)phenyl)propionamide], the IC50 is more than 1000 nM.
On to `CCN(CCN(C)C)c1c(F)cc(Nc2ncc(Cl)c(-c3cn(C)c4ccccc34)n2)cc1NC(C)=O` [Compound 398, N-(5-((5-chloro-4-(1-methyl-1H-indol-3-yl)pyrimidin-2-yl)amino)-2-((2-(dimethylamino)ethyl)(ethyl)amino)-3-fluorophenyl)acetamide], for which the IC50 is 196 nM.
For `CC(=O)Nc1cc(Nc2ncc(C(F)(F)F)c(-c3cn(C)c4cccc(F)c34)n2)ccc1N(C)CCN(C)C` [Compound 320, N-(2-((2-(dimethylamino)ethyl)(methyl)amino)-5-((4-(4-fluoro-1-methyl-1H-indol-3-yl)-5-(trifluoromethyl)pyrimidin-2-yl)amino)phenyl)acetamide], the 50% inhibitory concentration (IC50) was determined as 91.1 nM.
As to `COc1cnc(Nc2ccc(N(C)CCN(C)C)c(NC(C)=O)c2)nc1-c1cn(C)nc1C` [Compound 289, N-(5-((4-(1,3-dimethyl-1H-pyrazol-4-yl)-5-methoxypyrimidin-2-yl)amino)-2-((2-(dimethylamino)ethyl)(methyl)amino)phenyl)acetamide], the half-maximal inhibitory concentration (IC50) was more than 10000 nM.

Staying with this experiment, now noted: KM12-luc cells, treated with test compounds for 72 hrs, CCK-8 viability; read-out: NTRK IC50 in KM12-luc.
On to `CC(=O)Nc1cc(Nc2ncc(F)c(-c3c[nH]c4ccc(C)cc34)n2)ccc1N(C)CCN(C)C` [Compound 269, N—N-(2-((2-(dimethylamino)ethyl)(methyl)amino)-5-((5-fluoro-4-(5-methyl-1H-indol-3-yl)pyrimidin-2-yl)amino)phenyl)acetamide], for which the half-maximal inhibitory concentration (IC50) was 112 nM.
